This data set relates to CCRIS mutagenicity, Ames/micronucleus/aberration tests. Description: CCRIS mutagenicity studies.
The mark [1] stands for this setting: Test System: AMES SALMONELLA TYPHIMURIUM, Strain/Indicator: TA1535, Metabolic Activation: NONE, Method: PREINCUBATION
The mark [2] stands for this setting: Test System: AMES SALMONELLA TYPHIMURIUM, Strain/Indicator: TA1537, Metabolic Activation: NONE, Method: PREINCUBATION
Where [3] appears, read: Test System: AMES SALMONELLA TYPHIMURIUM, Strain/Indicator: TA1538, Metabolic Activation: NONE, Method: PREINCUBATION

Activity calls are given as the source filed them. The rule behind the calls is not given here.

Consider `Cc1ccc(N)cc1C`, for which the mutagenic call by setting is: (Test System: AMES SALMONELLA TYPHIMURIUM, Strain/Indicator: TA97, Metabolic Activation: HAMSTER, LIVER, S-9, AROCLOR 1254 (10%), Method: PREINCUBATION) “inactive; negative”; (Test System: AMES SALMONELLA TYPHIMURIUM, Strain/Indicator: TA97, Metabolic Activation: NONE, Method: PREINCUBATION) “inactive; negative”; (Test System: AMES SALMONELLA TYPHIMURIUM, Strain/Indicator: TA97, Metabolic Activation: RAT, LIVER, S-9, AROCLOR 1254 (10%), Method: PREINCUBATION) “inactive; negative”; (Test System: AMES SALMONELLA TYPHIMURIUM, Strain/Indicator: TA98, Metabolic Activation: HAMSTER, LIVER, S-9, AROCLOR 1254 (10%), Method: PREINCUBATION) “inactive; negative”; (Test System: AMES SALMONELLA TYPHIMURIUM, Strain/Indicator: TA98, Metabolic Activation: NONE, Method: PREINCUBATION) “inactive; negative”; (Test System: AMES SALMONELLA TYPHIMURIUM, Strain/Indicator: TA98, Metabolic Activation: RAT LIVER S-9, PHENOBARBITAL AND BETA-NAPHTHOFLAVONE, Method: PREINCUBATION) “inactive; negative”. Also, the mutagenic call is “inactive; negative” (Test System: AMES SALMONELLA TYPHIMURIUM, Strain/Indicator: TA98, Metabolic Activation: RAT, LIVER, S-9, AROCLOR 1254 (10%), Method: PREINCUBATION); “active; positive” (Test System: AMES SALMONELLA TYPHIMURIUM, Strain/Indicator: TA100, Metabolic Activation: HAMSTER, LIVER, S-9, AROCLOR 1254 (10%), Method: PREINCUBATION); “inactive; negative” (Test System: AMES SALMONELLA TYPHIMURIUM, Strain/Indicator: TA100, Metabolic Activation: NONE, Method: PREINCUBATION); “inactive; negative” (Test System: AMES SALMONELLA TYPHIMURIUM, Strain/Indicator: TA100, Metabolic Activation: RAT LIVER S-9, PHENOBARBITAL AND BETA-NAPHTHOFLAVONE, Method: PREINCUBATION); “inactive; negative” (Test System: AMES SALMONELLA TYPHIMURIUM, Strain/Indicator: TA100, Metabolic Activation: RAT, LIVER, S-9, AROCLOR 1254 (10%), Method: PREINCUBATION); “inactive; negative” (Test System: AMES SALMONELLA TYPHIMURIUM, Strain/Indicator: TA1535, Metabolic Activation: HAMSTER, LIVER, S-9, AROCLOR 1254 (10%), Method: PREINCUBATION). For the same compound, the mutagenic call reads like this: under setting [1], “inactive; negative”; (Test System: AMES SALMONELLA TYPHIMURIUM, Strain/Indicator: TA1535, Metabolic Activation: RAT LIVER S-9, PHENOBARBITAL AND BETA-NAPHTHOFLAVONE, Method: PREINCUBATION) “inactive; negative”; (Test System: AMES SALMONELLA TYPHIMURIUM, Strain/Indicator: TA1535, Metabolic Activation: RAT, LIVER, S-9, AROCLOR 1254 (10%), Method: PREINCUBATION) “inactive; negative”; (Test System: AMES SALMONELLA TYPHIMURIUM, Strain/Indicator: TA1537, Metabolic Activation: HAMSTER, LIVER, S-9, AROCLOR 1254 (10%), Method: PREINCUBATION) “inactive; negative”; under setting [2], “inactive; negative”; (Test System: AMES SALMONELLA TYPHIMURIUM, Strain/Indicator: TA1537, Metabolic Activation: RAT LIVER S-9, PHENOBARBITAL AND BETA-NAPHTHOFLAVONE, Method: PREINCUBATION) “inactive; negative”. The mutagenic call was “inactive; negative” under setting [3]; “inactive; negative” (Test System: AMES SALMONELLA TYPHIMURIUM, Strain/Indicator: TA1538, Metabolic Activation: RAT LIVER S-9, PHENOBARBITAL AND BETA-NAPHTHOFLAVONE, Method: PREINCUBATION); “inactive; negative” (Test System: E.COLI, Strain/Indicator: WP2UVRA, Metabolic Activation: NONE, Method: PREINCUBATION); “inactive; negative” (Test System: E.COLI, Strain/Indicator: WP2UVRA, Metabolic Activation: RAT LIVER S-9, PHENOBARBITAL AND BETA-NAPHTHOFLAVONE, Method: PREINCUBATION).

Turning to `COc1ccc2c(cc3c4c(cc5c(c42)OCO5)CCN3C)c1OC`, the mutagenic call (Test System: AMES SALMONELLA TYPHIMURIUM, Strain/Indicator: TA98, Metabolic Activation: RAT, LIVER, S-9, PHENOBARBITAL AND BETA-NAPHTHOFLAVONE, Method: PREINCUBATION) is “active; positive” and the mutagenic call (Test System: AMES SALMONELLA TYPHIMURIUM, Strain/Indicator: TA100, Metabolic Activation: RAT, LIVER, S-9, PHENOBARBITAL AND BETA-NAPHTHOFLAVONE, Method: PREINCUBATION) is “active; positive”.

As for `C#CC1(O)CC[C@H]2[C@@H]3CCC4=CCCC[C@@H]4[C@H]3CC[C@@]21C` (stereo partly drawn), for the setting “End Point: IN VIVO CHROMOSOMAL ABERRATIONS, Test System: BONE MARROW CELLS, Species: MOUSE, Strain/Sex: SWISS ALBINO/FEMALE, Route: IP INJECTION”, the mutagenic call is “active; positive (structural changes)”.

`C=CCC`: the mutagenic call is “inactive; negative” (Test System: AMES SALMONELLA TYPHIMURIUM, Strain/Indicator: TA98, Metabolic Activation: NONE, Method: GAS EXPOSURE); “inactive; negative” (Test System: AMES SALMONELLA TYPHIMURIUM, Strain/Indicator: TA98, Metabolic Activation: RAT LIVER S-9, PHENOBARBITAL AND BETA-NAPHTHOFLAVONE (40%), Method: GAS EXPOSURE); “inactive; negative” (Test System: AMES SALMONELLA TYPHIMURIUM, Strain/Indicator: TA100, Metabolic Activation: NONE, Method: GAS EXPOSURE); “inactive; negative” (Test System: AMES SALMONELLA TYPHIMURIUM, Strain/Indicator: TA100, Metabolic Activation: RAT LIVER S-9, PHENOBARBITAL AND BETA-NAPHTHOFLAVONE (40%), Method: GAS EXPOSURE); “inactive; negative” (Test System: AMES SALMONELLA TYPHIMURIUM, Strain/Indicator: TA1535, Metabolic Activation: NONE, Method: GAS EXPOSURE); “inactive; negative” (Test System: AMES SALMONELLA TYPHIMURIUM, Strain/Indicator: TA1535, Metabolic Activation: RAT LIVER S-9, PHENOBARBITAL AND BETA-NAPHTHOFLAVONE (40%), Method: GAS EXPOSURE). The mutagenic call is “inactive; negative” (Test System: AMES SALMONELLA TYPHIMURIUM, Strain/Indicator: TA1537, Metabolic Activation: NONE, Method: GAS EXPOSURE); “inactive; negative” (Test System: AMES SALMONELLA TYPHIMURIUM, Strain/Indicator: TA1537, Metabolic Activation: RAT LIVER S-9, PHENOBARBITAL AND BETA-NAPHTHOFLAVONE (40%), Method: GAS EXPOSURE); “inactive; negative” (Test System: E.COLI, Strain/Indicator: WP2UVRA, Metabolic Activation: NONE, Method: GAS EXPOSURE); “inactive; negative” (Test System: E.COLI, Strain/Indicator: WP2UVRA, Metabolic Activation: RAT LIVER S-9, PHENOBARBITAL AND BETA-NAPHTHOFLAVONE (40%), Method: GAS EXPOSURE).

With `Oc1ccc([C@H]2COc3cc(O)ccc3C2)cc1`, the mutagenic call (End Point: IN VITRO MICRONUCLEUS, Test System: CHINESE HAMSTER V79 CELLS, Metabolic Activation: NONE) was “active; positive”.

As for `CN(OC(=O)c1ccccc1)c1ccc(N=Nc2ccccc2)cc1`, the mutagenic call runs as follows: (Test System: AMES SALMONELLA TYPHIMURIUM, Strain/Indicator: TA98, Metabolic Activation: RAT, LIVER, S-9, KC500 OR PHENOBARBITAL, Method: LIQUID SUSPENSION) “active; positive”; (Test System: AMES SALMONELLA TYPHIMURIUM, Strain/Indicator: TA100, Metabolic Activation: RAT, LIVER, S-9, KC500 OR PHENOBARBITAL, Method: LIQUID SUSPENSION) “active; positive”.

In the case of `C[n+]1c2cc(N)ccc2cc2ccc(N)cc21`, the mutagenic call was “inactive; negative” under setting [1]; “inactive; negative” (Test System: AMES SALMONELLA TYPHIMURIUM, Strain/Indicator: TA1535, Metabolic Activation: RAT, LIVER, S-9, TETRACHLOROBIPHENYL, Method: PREINCUBATION); “active; positive” under setting [2]; “active; positive” (Test System: AMES SALMONELLA TYPHIMURIUM, Strain/Indicator: TA1537, Metabolic Activation: RAT, LIVER, S-9, TETRACHLOROBIPHENYL, Method: PREINCUBATION); “inactive; negative” under setting [3]; “active; positive” (Test System: AMES SALMONELLA TYPHIMURIUM, Strain/Indicator: TA1538, Metabolic Activation: RAT, LIVER, S-9, TETRACHLOROBIPHENYL, Method: PREINCUBATION). Besides, the mutagenic call is, setting by setting: (Test System: AMES SALMONELLA TYPHIMURIUM, Strain/Indicator: TA1977, Metabolic Activation: NONE, Method: PREINCUBATION) “active; positive”; (Test System: AMES SALMONELLA TYPHIMURIUM, Strain/Indicator: TA1977, Metabolic Activation: RAT, LIVER, S-9, TETRACHLOROBIPHENYL, Method: PREINCUBATION) “active; positive”; (Test System: AMES SALMONELLA TYPHIMURIUM, Strain/Indicator: TA1978, Metabolic Activation: NONE, Method: PREINCUBATION) “inactive; negative”; (Test System: AMES SALMONELLA TYPHIMURIUM, Strain/Indicator: TA1978, Metabolic Activation: RAT, LIVER, S-9, TETRACHLOROBIPHENYL, Method: PREINCUBATION) “inactive; negative”.

The values are drawn from PubChem BioAssay AID1259407 (Chemical Carcinogenesis Research Information System (CCRIS), 2018).
